Results reported in US9670227B2, “Thienopyrimidine derivatives, a process for their preparation and pharmaceutical compositions containing them” (LES LABORATOIRES SERVIER, priority 2013, dated 2017).

Key:
[1] = target: Mcl-1 protein (UniProtKB primary accession number: Q07820) (Homo sapiens, UniProt Q07820); experiment: Inhibition of Mcl-1 by fluorescence polarisation, Method 1; assay type: binding; details: fluorescence polarisation test; Method 2 values are underlined in the patent (underlining not visible here); read-out: IC50 (M) Mcl-1 FP
Chain of Mcl-1 protein (Q07820 whole entry): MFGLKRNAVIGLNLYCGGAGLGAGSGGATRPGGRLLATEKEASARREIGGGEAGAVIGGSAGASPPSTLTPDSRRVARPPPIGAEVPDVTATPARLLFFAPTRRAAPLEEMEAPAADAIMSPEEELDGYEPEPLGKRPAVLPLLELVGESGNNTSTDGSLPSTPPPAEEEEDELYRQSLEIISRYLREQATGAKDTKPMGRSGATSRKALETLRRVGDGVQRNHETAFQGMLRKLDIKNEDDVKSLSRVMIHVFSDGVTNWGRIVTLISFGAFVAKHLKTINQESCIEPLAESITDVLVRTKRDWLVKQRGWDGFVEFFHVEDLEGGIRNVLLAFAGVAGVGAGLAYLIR
Procedure, shortened: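 Compounds were tested as 11-point serial dilutions at 5% final DMSO against 5 nM Mcl-1 with 1 nM fluorescein-labelled ligand in 10 mM HEPES, 150 mM NaCl, 0.05% Tween 20, pH 7.4. Relative binding potency was read by fluorescence polarisation.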

[2] = tested on: H929 multiple myeloma tumour line; experiment: In vitro cytotoxicity, Microculture Tetrazolium Assay; assay type: cell-based; details: Homo sapiens, NCI-H929, 48 h, H929 cells, 48 hours exposure, MTT; read-out: IC50 (μM) MTT H929
Protocol: The cytotoxicity studies were carried out on the H929 multiple myeloma tumour line.
The cells are distributed onto microplates and exposed to the test compounds for 48 hours.

Structure (SMILES) | IC50 [1] | IC50 [2]
COc1cc(COc2ccccc2CC(Oc2ncnc3sc(-c4ccc(F)cc4)c(-c4ccc(OCCN5CCN(C)CC5)c(Cl)c4C)c23)C(=O)O)ccn1 [Example 21, (2R)-2-{[(5Sa)-5-{3-chloro-2-methyl-4-[2-(4-methylpiperazin-1-yl)ethoxy]phenyl}-6-(4-fluorophenyl)thieno[2,3-d]pyrimidin-4-yl]oxy}-3-{2-[(2-methoxypyridin-4-yl)methoxy]phenyl}propanoic acid] | 1.6e-08 M | 0.162 µM
COCCOc1cc(COc2ccccc2CC(Oc2ncnc3sc(-c4ccc(F)cc4)c(-c4ccc(OCCN5CCN(C)CC5)c(Cl)c4C)c23)C(=O)O)ccn1 [Example 22, (2R)-2-{[(5Sa)-5-{3-chloro-2-methyl-4-[2-(4-methylpiperazin-1-yl)ethoxy]phenyl}-6-(4-fluorophenyl)thieno[2,3-d]pyrimidin-4-yl]oxy}-3-(2-{[2-(2-methoxyethoxy)pyridin-4-yl]methoxy}phenyl)propanoic acid] | 8.3e-09 M | 0.092 µM
Cc1c(-c2c(-c3ccc(F)cc3)sc3ncnc(OC(Cc4ccccc4OCc4ccnc(C(C)(C)C)n4)C(=O)O)c23)ccc(OCCN2CCN(C)CC2)c1Cl [Example 23, (2R)-3-{2-[(2-tert-butylpyrimidin-4-yl)methoxy]phenyl}-2-{[(5Sa)-5-{3-chloro-2-methyl-4-[2-(4-methylpiperazin-1-yl)ethoxy]phenyl}-6-(4-fluorophenyl)thieno[2,3-d]pyrimidin-4-yl]oxy}propanoic acid] | 2.4e-08 M | 0.054 µM
Cc1c(-c2c(-c3ccc(F)cc3)sc3ncnc(OC(Cc4ccccc4OCc4ccnc(C(C)C)n4)C(=O)O)c23)ccc(OCCN2CCN(C)CC2)c1Cl [Example 24, (2R)-2-{[(5Sa)-5-{3-chloro-2-methyl-4-[2-(4-methylpiperazin-1-yl)ethoxy]phenyl}-6-(4-fluorophenyl)thieno[2,3-d]pyrimidin-4-yl]oxy}-3-(2-{[2-(propan-2-yl)pyrimidin-4-yl]methoxy}phenyl)propanoic acid] | 8.1e-09 M | 0.012 µM
Cc1c(-c2c(-c3ccc(F)cc3)sc3ncnc(OC(Cc4ccccc4OCc4ccnc(C(F)(F)F)n4)C(=O)O)c23)ccc(OCCN2CCN(C)CC2)c1Cl [Example 25, (2R)-2-{[(5Sa)-5-{3-chloro-2-methyl-4-[2-(4-methylpiperazin-1-yl)ethoxy]phenyl}-6-(4-fluorophenyl)thieno[2,3-d]pyrimidin-4-yl]oxy}-3-(2-{[2-(trifluoromethyl)pyrimidin-4-yl]methoxy}phenyl)propanoic acid] | 5.6e-09 M | 0.074 µM
Cc1c(-c2c(-c3ccc(F)cc3)sc3ncnc(OC(Cc4ccccc4OCc4ccnc(C5CC5)n4)C(=O)O)c23)ccc(OCCN2CCN(C)CC2)c1Cl [Example 26, (2R)-2-{[(5Sa)-5-{3-chloro-2-methyl-4-[2-(4-methylpiperazin-1-yl)ethoxy]phenyl}-6-(4-fluorophenyl)thieno[2,3-d]pyrimidin-4-yl]oxy}-3-{2-[(2-cyclopropylpyrimidin-4-yl)methoxy]phenyl}propanoic acid] | 1.1e-08 M | 0.028 µM
Cc1c(-c2c(-c3ccc(F)cc3)sc3ncnc(OC(Cc4ccccc4OCc4ccnc(-c5ccc(Cl)cc5)n4)C(=O)O)c23)ccc(OCCN2CCN(C)CC2)c1Cl [Example 27, (2R)-2-{[(5Sa)-5-{3-chloro-2-methyl-4-[2-(4-methylpiperazin-1-yl)ethoxy]phenyl}-6-(4-fluorophenyl)thieno[2,3-d]pyrimidin-4-yl]oxy}-3-(2-{[2-(4-chlorophenyl)pyrimidin-4-yl]methoxy}phenyl)propanoic acid] | 6.6e-09 M | 0.045 µM
Cc1c(-c2c(-c3ccc(F)cc3)sc3ncnc(OC(Cc4ccccc4OCc4ccnc(C5CCCC5)n4)C(=O)O)c23)ccc(OCCN2CCN(C)CC2)c1Cl [Example 28, (2R)-2-{[(5Sa)-5-{3-chloro-2-methyl-4-[2-(4-methylpiperazin-1-yl)ethoxy]phenyl}-6-(4-fluorophenyl)thieno[2,3-d]pyrimidin-4-yl]oxy}-3-{2-[(2-cyclopentylpyrimidin-4-yl)methoxy]phenyl}propanoic acid] | 4.5e-09 M | 0.021 µM
Cc1c(-c2c(-c3ccc(F)cc3)sc3ncnc(OC(Cc4ccccc4OCc4ccnc(-c5ccccc5)n4)C(=O)O)c23)ccc(OCCN2CCN(C)CC2)c1Cl [Example 29, (2R)-2-{[(5Sa)-5-{3-chloro-2-methyl-4-[2-(4-methylpiperazin-1-yl)ethoxy]phenyl}-6-(4-fluorophenyl)thieno[2,3-d]pyrimidin-4-yl]oxy}-3-{2-[(2-phenylpyrimidin-4-yl)methoxy]phenyl}propanoic acid] | 3.3e-09 M | 0.007 µM
Cc1c(-c2c(-c3ccc(F)cc3)sc3ncnc(OC(Cc4ccccc4OCc4ccnc(-c5cccs5)n4)C(=O)O)c23)ccc(OCCN2CCN(C)CC2)c1Cl [Example 33, (2R)-2-{[(5Sa)-5-{3-chloro-2-methyl-4-[2-(4-methylpiperazin-1-yl)ethoxy]phenyl}-6-(4-fluorophenyl)thieno[2,3-d]pyrimidin-4-yl]oxy}-3-(2-{[2-(thiophen-2-yl)pyrimidin-4-yl]methoxy}phenyl)propanoic acid] | 7.8e-09 M | 0.017 µM
Cc1c(-c2c(-c3ccc(F)cc3)sc3ncnc(OC(Cc4ccccc4OCc4ccnc(-c5ccoc5)n4)C(=O)O)c23)ccc(OCCN2CCN(C)CC2)c1Cl [Example 35, (2R)-2-{[(5Sa)-5-{3-chloro-2-methyl-4-[2-(4-methylpiperazin-1-yl)ethoxy]phenyl}-6-(4-fluorophenyl)thieno[2,3-d]pyrimidin-4-yl]oxy}-3-(2-{[2-(furan-3-yl)pyrimidin-4-yl]methoxy}phenyl)propanoic acid] | 4.8e-09 M | 0.027 µM
Cc1c(-c2c(-c3ccc(F)cc3)sc3ncnc(OC(Cc4ccccc4OCc4ccnc(-c5nccs5)n4)C(=O)O)c23)ccc(OCCN2CCN(C)CC2)c1Cl [Example 36, (2R)-2-{[(5Sa)-5-{3-chloro-2-methyl-4-[2-(4-methylpiperazin-1-yl)ethoxy]phenyl}-6-(4-fluorophenyl)thieno[2,3-d]pyrimidin-4-yl]oxy}-3-(2-{[2-(1,3-thiazol-2-yl)pyrimidin-4-yl]methoxy}phenyl)propanoic acid] | 1.1e-08 M | 0.015 µM
CCc1nccc(COc2ccccc2CC(Oc2ncnc3sc(-c4ccc(F)cc4)c(-c4ccc(OCCN5CCN(C)CC5)c(Cl)c4C)c23)C(=O)O)n1 [Example 37, (2R)-2-{[(5Sa)-5-{3-chloro-2-methyl-4-[2-(4-methylpiperazin-1-yl)ethoxy]phenyl}-6-(4-fluorophenyl)thieno[2,3-d]pyrimidin-4-yl]oxy}-3-{2-[(2-ethylpyrimidin-4-yl)methoxy]phenyl}propanoic acid] | 6e-09 M | 0.014 µM
Cc1c(-c2c(-c3ccc(F)cc3)sc3ncnc(OC(Cc4ccccc4OCc4ccnc(CC(C)C)n4)C(=O)O)c23)ccc(OCCN2CCN(C)CC2)c1Cl [Example 38, (2R)-2-{[(5Sa)-5-{3-chloro-2-methyl-4-[2-(4-methylpiperazin-1-yl)ethoxy]phenyl}-6-(4-fluorophenyl)thieno[2,3-d]pyrimidin-4-yl]oxy}-3-(2-{[2-(2-methylpropyl)pyrimidin-4-yl]methoxy}phenyl)propanoic acid] | 1.9e-09 M | 0.016 µM
Cc1c(-c2c(-c3ccc(F)cc3)sc3ncnc(OC(Cc4ccccc4OCc4ccnc(CC5CC5)n4)C(=O)O)c23)ccc(OCCN2CCN(C)CC2)c1Cl [Example 39, (2R)-2-{[(5Sa)-5-{3-chloro-2-methyl-4-[2-(4-methylpiperazin-1-yl)ethoxy]phenyl}-6-(4-fluorophenyl)thieno[2,3-d]pyrimidin-4-yl]oxy}-3-(2-{[2-(cyclopropylmethyl)pyrimidin-4-yl]methoxy}phenyl)propanoic acid] | 4.8e-09 M | 0.015 µM
Cc1c(-c2c(-c3ccc(F)cc3)sc3ncnc(OC(Cc4ccccc4OCc4ccnc(Cc5ccccc5)n4)C(=O)O)c23)ccc(OCCN2CCN(C)CC2)c1Cl [Example 40, (2R)-3-{2-[(2-benzylpyrimidin-4-yl)methoxy]phenyl}-2-{[(5Sa)-5-{3-chloro-2-methyl-4-[2-(4-methylpiperazin-1-yl)ethoxy]phenyl}-6-(4-fluorophenyl)thieno[2,3-d]pyrimidin-4-yl]oxy}propanoic acid] | 5.6e-09 M | 0.008 µM
CCCCc1nccc(COc2ccccc2CC(Oc2ncnc3sc(-c4ccc(F)cc4)c(-c4ccc(OCCN5CCN(C)CC5)c(Cl)c4C)c23)C(=O)O)n1 [Example 42, (2R)-3-{2-[(2-butylpyrimidin-4-yl)methoxy]phenyl}-2-{[(5Sa)-5-{3-chloro-2-methyl-4-[2-(4-methylpiperazin-1-yl)ethoxy]phenyl}-6-(4-fluorophenyl)thieno[2,3-d]pyrimidin-4-yl]oxy}propanoic acid] | 3.2e-09 M | 0.012 µM
Cc1c(-c2c(-c3ccc(F)cc3)sc3ncnc(OC(Cc4ccccc4OCc4ccnc(CCN(C)C)n4)C(=O)O)c23)ccc(OCCN2CCN(C)CC2)c1Cl [Example 43, (2R)-2-{[(5Sa)-5-{3-chloro-2-methyl-4-[2-(4-methylpiperazin-1-yl)ethoxy]phenyl}-6-(4-fluorophenyl)thieno[2,3-d]pyrimidin-4-yl]oxy}-3-[2-({2-[2-(dimethylamino)ethyl]pyrimidin-4-yl}methoxy)phenyl]propanoic acid] | 9.8e-09 M | 0.465 µM
Cc1c(-c2c(-c3ccc(F)cc3)sc3ncnc(OC(Cc4ccccc4OCc4ccnc(COc5ccccc5)n4)C(=O)O)c23)ccc(OCCN2CCN(C)CC2)c1Cl [Example 46, (2R)-2-{[(5Sa)-5-{3-chloro-2-methyl-4-[2-(4-methylpiperazin-1-yl)ethoxy]phenyl}-6-(4-fluorophenyl)thieno[2,3-d]pyrimidin-4-yl]oxy}-3-(2-{[2-(phenoxymethyl)pyrimidin-4-yl]methoxy}phenyl)propanoic acid] | 7.3e-09 M | 0.024 µM
